Experiments:
[1] = target: T1, Carboxylic ester hydrolase (Equus caballus, UniProt Q9N1N9); test: (§1) Tested for kinetic data for the horse serum Butyrylcholinesterase-Catalyzed Hydrolysis of Butyrylthiocholine; 10e-3/M. sec; conditions: read-out: kon (M-1-s-1)
[2] = target: T1, Carboxylic ester hydrolase; test: ChEBML_41403; conditions: read-out: kon (M-1-s-1); source text: as §1

T1 sequence (Q9N1N9 whole entry): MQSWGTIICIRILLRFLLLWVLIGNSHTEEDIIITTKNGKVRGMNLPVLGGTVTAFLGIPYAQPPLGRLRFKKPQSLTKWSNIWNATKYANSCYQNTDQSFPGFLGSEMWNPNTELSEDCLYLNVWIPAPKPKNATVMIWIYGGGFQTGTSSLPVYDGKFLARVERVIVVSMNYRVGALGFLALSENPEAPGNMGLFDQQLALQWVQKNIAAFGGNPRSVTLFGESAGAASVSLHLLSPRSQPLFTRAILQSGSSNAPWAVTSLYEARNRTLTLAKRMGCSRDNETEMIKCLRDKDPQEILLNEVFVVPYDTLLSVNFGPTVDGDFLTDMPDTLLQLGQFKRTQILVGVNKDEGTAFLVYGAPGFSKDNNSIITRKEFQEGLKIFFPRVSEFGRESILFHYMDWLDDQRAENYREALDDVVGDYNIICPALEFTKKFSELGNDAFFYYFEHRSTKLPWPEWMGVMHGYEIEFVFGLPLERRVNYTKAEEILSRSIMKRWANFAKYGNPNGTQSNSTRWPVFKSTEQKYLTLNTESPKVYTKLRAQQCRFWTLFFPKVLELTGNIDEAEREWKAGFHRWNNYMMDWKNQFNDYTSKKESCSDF

Compound: CCCCNC(=O)OC1C2CC3CC(C2)CC1C3 (centres undefined)
- kon [1]: 1800 M⁻¹ s⁻¹

Compound: CCCCNC(=O)OC1C[C@H]2CCC1C2 (stereo partly drawn) [Butyl-carbamic acid (S)-bicyclo[2.2.1]hept-2-yl ester]
- kon [2]: 2200 M⁻¹ s⁻¹
- kon [1]: 110000 M⁻¹ s⁻¹

Compound: CCCCNC(=O)OC12CC3CC(CC(C3)C1)C2 [Butyl-carbamic acid adamantan-1-yl ester]
- kon [1]: 1900 M⁻¹ s⁻¹

From BindingDB's records for doi:10.1016/s0960-894x(98)00484-3 (National Chung-Hsing University, 1999)
